Measurements reported in patent publication US20230049231A1 (priority 2019, published 2023).

Legend:
Kv1.3 potassium channel = molecular target: T1, Kv1.3 potassium channel (Homo sapiens, UniProt P22001); assay: Kv1.3 potassium channel blocker activity, automated whole-cell patch clamp (Patchliner); assay type: cell-based; details: Kv1.3 potassium channel, whole-cell patch clamp
T1 construct: expressed in transfected cells
In short: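 IC50 came from Hill-equation fits of peak and AUC currents from the final pulse at each concentration, normalized to compound-free control. Compounds applied consecutively at 30 nM to 100 μM (up to 0.3% DMSO) to Kv1.3-expressing CHO-K1 cells, P/4 leak subtraction. Pulses were +40 mV, 100 ms, from −90 mV holding, at 0.1 Hz on Patchliner.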

hERG channel = molecular target: T2, hERG channel (Homo sapiens, UniProt Q12809); assay: hERG electrophysiology, automated whole-cell patch clamp (Patchliner); assay type: cell-based; details: hERG channel, whole-cell patch clamp
T2 construct: expressed in transfected cells
In short: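 Automated whole-cell patch clamp on CHO-K1 cells stably expressing hERG; 30 nM–100 μM applied cumulatively to the same cell, ≤0.3% DMSO. Pulses: −80 mV holding, +20 mV for 300 ms, −50 mV for 300 ms tail, 0.3 Hz, 70 per concentration. Last-pulse AUC and peak, normalized to control, were fitted to a Hill equation for IC50.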

T2 sequence (Q12809 whole entry): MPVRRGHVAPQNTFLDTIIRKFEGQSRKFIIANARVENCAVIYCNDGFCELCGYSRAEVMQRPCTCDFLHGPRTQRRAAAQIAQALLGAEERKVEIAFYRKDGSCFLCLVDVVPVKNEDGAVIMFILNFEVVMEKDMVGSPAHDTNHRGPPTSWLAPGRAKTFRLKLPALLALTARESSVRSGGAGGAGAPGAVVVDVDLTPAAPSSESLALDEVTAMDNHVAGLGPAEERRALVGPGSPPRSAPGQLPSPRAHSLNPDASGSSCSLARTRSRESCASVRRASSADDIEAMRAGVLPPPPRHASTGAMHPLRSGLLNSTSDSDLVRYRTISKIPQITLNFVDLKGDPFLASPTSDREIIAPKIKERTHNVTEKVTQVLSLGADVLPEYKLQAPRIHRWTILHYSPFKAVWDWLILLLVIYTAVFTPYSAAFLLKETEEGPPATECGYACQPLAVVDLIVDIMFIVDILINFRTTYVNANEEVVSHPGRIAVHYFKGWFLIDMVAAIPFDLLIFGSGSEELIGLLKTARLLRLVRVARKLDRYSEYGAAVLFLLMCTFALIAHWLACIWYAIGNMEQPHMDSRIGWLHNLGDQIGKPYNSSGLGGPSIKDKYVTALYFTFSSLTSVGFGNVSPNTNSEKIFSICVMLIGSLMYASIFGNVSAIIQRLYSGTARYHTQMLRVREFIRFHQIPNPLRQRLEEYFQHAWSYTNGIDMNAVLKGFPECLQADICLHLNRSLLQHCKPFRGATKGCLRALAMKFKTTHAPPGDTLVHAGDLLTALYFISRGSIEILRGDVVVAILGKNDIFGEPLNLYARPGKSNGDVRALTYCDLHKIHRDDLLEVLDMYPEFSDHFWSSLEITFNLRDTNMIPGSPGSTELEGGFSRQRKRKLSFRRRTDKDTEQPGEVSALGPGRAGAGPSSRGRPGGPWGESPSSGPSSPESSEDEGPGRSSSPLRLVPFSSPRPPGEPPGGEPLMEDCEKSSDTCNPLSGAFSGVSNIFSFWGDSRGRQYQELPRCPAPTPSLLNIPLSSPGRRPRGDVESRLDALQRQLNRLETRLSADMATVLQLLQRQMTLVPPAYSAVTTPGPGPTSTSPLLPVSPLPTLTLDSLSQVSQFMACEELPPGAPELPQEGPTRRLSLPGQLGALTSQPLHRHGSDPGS
T1 sequence (P22001 whole entry): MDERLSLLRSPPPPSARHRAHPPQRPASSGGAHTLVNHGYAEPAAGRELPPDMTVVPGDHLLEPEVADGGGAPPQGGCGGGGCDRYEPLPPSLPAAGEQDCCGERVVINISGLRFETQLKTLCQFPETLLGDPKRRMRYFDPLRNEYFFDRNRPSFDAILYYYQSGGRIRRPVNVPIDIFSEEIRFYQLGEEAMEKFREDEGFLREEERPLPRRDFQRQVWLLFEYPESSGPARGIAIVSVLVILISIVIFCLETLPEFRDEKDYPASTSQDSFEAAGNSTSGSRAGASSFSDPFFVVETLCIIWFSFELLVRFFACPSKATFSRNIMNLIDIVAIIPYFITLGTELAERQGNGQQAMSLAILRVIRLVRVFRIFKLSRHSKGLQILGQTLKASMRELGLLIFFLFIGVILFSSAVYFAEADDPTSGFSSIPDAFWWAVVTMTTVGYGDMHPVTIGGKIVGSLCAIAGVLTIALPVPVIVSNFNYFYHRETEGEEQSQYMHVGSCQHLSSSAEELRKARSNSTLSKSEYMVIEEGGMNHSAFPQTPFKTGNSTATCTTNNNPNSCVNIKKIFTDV

| SMILES | IC50 (Kv1.3 potassium channel) | IC50 (hERG channel) |
| --- | --- | --- |
| O=C1CN(C[C@H]2CNCCO2)C[C@@H]2C[C@H](c3c(O)ccc(Cl)c3Cl)CN12 [Compound 147, (7R,8aS)-7-(2,3-dichloro-6-hydroxyphenyl)-2-[(2R)-morpholin-2-ylmethyl]-hexahydropyrrolo [1,2-a]pyrazin-4-one] | < 1 µM | > 30 µM |
| CC(C)(O)CN1CC(=O)N2C[C@@H](c3c(O)ccc(Cl)c3Cl)C[C@H]2C1 [Compound 148, (7R,8aS)-7-(2,3-dichloro-6-hydroxyphenyl)-2-(2-hydroxy-2-methylpropyl)-hexahydropyrrolo[1,2-a]pyrazin-4-one] | < 1 µM | > 30 µM |
| O=C1CN(C2COCC2O)C[C@@H]2C[C@H](c3c(O)ccc(Cl)c3Cl)CN12 (stereo partly drawn) [Compound 149, (7R,8aS)-7-(2,3-dichloro-6-hydroxyphenyl)-2-(4-hydroxyoxolan-3-yl)-hexahydropyrrolo[1,2-a]pyrazin-4-one] | < 1 µM | > 30 µM |
| COC(CO)CN1CC(=O)N2C[C@@H](c3c(O)ccc(Cl)c3Cl)C[C@H]2C1 (stereo partly drawn) [Compound 156, (7R,8aS)-7-(2,3-dichloro-6-hydroxyphenyl)-2-(3-hydroxy-2-methoxypropyl) hexahydropyrrolo[1,2-a]pyrazin-4-one] | < 1 µM | > 30 µM |
| O=C1CN(CC2(O)CNC2)C[C@@H]2C[C@H](c3c(O)ccc(Cl)c3Cl)CN12 [Compound 157, (7R,8aS)-7-(2,3-dichloro-6-hydroxyphenyl)-2-[(3-hydroxyazetidin-3-yl)methyl]-hexahydropyrrolo[1,2-a]pyrazin-4-one;] | < 1 µM | > 30 µM |
| CC(CO)(CO)N1CC(=O)N2C[C@@H](c3c(O)ccc(Cl)c3Cl)C[C@H]2C1 [Compound 162, (7R,8aS)-7-(2,3-dichloro-6-hydroxyphenyl)-2-(1,3-dihydroxy-2-methylpropan-2-yl)-hexahydropyrrolo[1,2-a]pyrazin-4-one] | < 1 µM | > 30 µM |
| CC1(CN2CC(=O)N3C[C@@H](c4c(O)ccc(Cl)c4Cl)C[C@H]3C2)CNC1 [Compound 167, (7R,8aS)-7-(2,3-dichloro-6-hydroxyphenyl)-2-[(3-methylazetidin-3-yl)methyl]-hexahydropyrrolo[1,2-a]pyrazin-4-one] | < 1 µM | > 30 µM |
| O=C1CN(c2ccnc(CO)n2)C[C@@H]2C[C@H](c3c(O)ccc(Cl)c3Cl)CN12 [Compound 169, (7R,8aS)-7-(2,3-dichloro-6-hydroxyphenyl)-2-[2-(hydroxymethyl)pyrimidin-4-yl]-hexahydropyrrolo[1,2-a]pyrazin-4-one] | < 1 µM | > 30 µM |
| Nc1ccnc(N2CC(=O)N3C[C@@H](c4c(O)ccc(Cl)c4Cl)C[C@H]3C2)c1 [Compound 171, (7R,8aS)-2-(4-aminopyridin-2-yl)-7-(2,3-dichloro-6-hydroxyphenyl)-hexahydropyrrolo[1,2-a]pyrazin-4-one] | < 1 µM | < 10 µM |
| O=C1CN(c2cnc(CO)cn2)C[C@@H]2C[C@H](c3c(O)ccc(Cl)c3Cl)CN12 [Compound 172] | < 1 µM | < 30 µM |
| O=C1CN(c2cc(CO)ccn2)C[C@@H]2C[C@H](c3c(O)ccc(Cl)c3Cl)CN12 [Compound 173] | < 1 µM | < 30 µM |
| O=C1CN(c2ncn[nH]2)C[C@@H]2C[C@H](c3c(O)ccc(Cl)c3Cl)CN12 [Compound 175, (7R,8aS)-7-(2,3-dichloro-6-hydroxyphenyl)-2-(1H-1,2,4-triazol-5-yl)hexahydropyrrolo[1,2-a]pyrazin-4(1H)-one] | < 1 µM | > 30 µM |
| O=C1CN(c2ncc[nH]2)C[C@@H]2C[C@H](c3c(O)ccc(Cl)c3Cl)CN12 [Compound 176, (7R,8aS)-7-(2,3-dichloro-6-hydroxyphenyl)-2-(1H-imidazol-2-yl)-hexahydropyrrolo[1,2-a]pyrazin-4-one] | < 1 µM | < 30 µM |
| NCC1OC[C@@H]2C[C@H](c3c(O)ccc(Cl)c3Cl)CCN2C1=O (stereo partly drawn) [Compound 180, (8R,9aS)-3-(aminomethyl)-8-(2,3-dichloro-6-hydroxyphenyl)-hexahydro-1H-pyrido[2,1-c][1,4]oxazin-4-one] | < 1 µM | < 30 µM |
| O=C1C(CN2CCCC2)OC[C@@H]2C[C@H](c3c(O)ccc(Cl)c3Cl)CCN12 (stereo partly drawn) [Compound 181, (8R,9aS)-8-(2,3-dichloro-6-hydroxyphenyl)-3-(pyrrolidin-1-ylmethyl)-hexahydro-1H-pyrido[2,1-c][1,4]oxazin-4-one] | < 1 µM | < 10 µM |
| CNCC1OC[C@@H]2C[C@H](c3c(O)ccc(Cl)c3Cl)CCN2C1=O (stereo partly drawn) [Compound 182, (8R,9aS)-8-(2,3-dichloro-6-hydroxyphenyl)-3-[(methylamino)methyl]-hexahydro-1H-pyrido[2,1-c][1,4]oxazin-4-one] | < 1 µM | < 30 µM |

| SMILES | IC50 (Kv1.3 potassium channel) | IC50 (hERG channel) |
| --- | --- | --- |
| O=C1C(CN2CC(O)C2)OC[C@@H]2C[C@H](c3c(O)ccc(Cl)c3Cl)CCN12 (stereo partly drawn) [Compound 183, (8R,9aS)-8-(2,3-dichloro-6-hydroxyphenyl)-3-[(3-hydroxyazetidin-1-yl)methyl]-hexahydro-1H-pyrido[2,1-c][1,4]oxazin-4-one] | < 1 µM | < 30 µM |
| O=C(CO)NCC1OC[C@@H]2C[C@H](c3c(O)ccc(Cl)c3Cl)CCN2C1=O (stereo partly drawn) [Compound 185, N-[[(8R,9aS)-8-(2,3-dichloro-6-hydroxyphenyl)-4-oxo-hexahydro-1H-pyrido[2,1-c][1,4]oxazin-3-yl]methyl]-2-hydroxyacetamide] | < 1 µM | > 30 µM |
| NC(=O)CC1OC[C@@H]2C[C@H](c3c(O)ccc(Cl)c3Cl)CCN2C1=O (stereo partly drawn) [Compound 187, 2-[(8R,9aS)-8-(2,3-dichloro-6-hydroxyphenyl)-4-oxo-hexahydro-1H-pyrido[2,1-c][1,4]oxazin-3-yl]acetamide] | < 1 µM | > 30 µM |
| CNC(=O)CC1OC[C@@H]2C[C@H](c3c(O)ccc(Cl)c3Cl)CCN2C1=O (stereo partly drawn) [Compound 188, 2-[(8R,9aS)-8-(2,3-dichloro-6-hydroxyphenyl)-4-oxo-hexahydro-1H-pyrido[2,1-c] [1,4]oxazin-3-yl]-N-methylacetamide] | < 1 µM | > 30 µM |
| O=C1CC(N2CCOCC2)C[C@@H]2C[C@H](c3c(O)ccc(Cl)c3Cl)CN12 (stereo partly drawn) [Compound 195, (2R,8aS)-2-(2,3-dichloro-6-hydroxyphenyl)-7-(morpholin-4-yl)-hexahydro-1-indolizin-5-one] | < 1 µM | < 30 µM |
| CC(=O)NC1CC(=O)N2C[C@@H](c3c(O)ccc(Cl)c3Cl)C[C@H]2C1 (stereo partly drawn) [Compound 206, N-[(2R,8aS)-2-(2,3-dichloro-6-hydroxyphenyl)-5-oxo-hexahydro-1H-indolizin-7-yl]acetamide] | < 1 µM | > 30 µM |
| NCC1CC(=O)N2C[C@@H](c3c(O)ccc(Cl)c3Cl)C[C@H]2C1 (stereo partly drawn) [Compound 217, (2R,8aR)-7-(aminomethyl)-2-(2,3-dichloro-6-hydroxyphenyl)-hexahydro-1H-indolizin-5-one] | < 1 µM | > 30 µM |
| O=C1CC(O)(CO)C[C@@H]2C[C@H](c3c(O)ccc(Cl)c3Cl)CN12 (stereo partly drawn) [Compound 220, (2R,8aS)-2-(2,3-dichloro-6-hydroxyphenyl)-7-hydroxy-7-(hydroxymethyl)-hexahydroindolizin-5-one] | < 1 µM | > 30 µM |
| O=C1CCC[C@@H]2C[C@H](c3c(O)ccc(Cl)c3Cl)CN12 [Compound 223, (2R,8aR)-2-(2,3-dichloro-6-hydroxyphenyl)-hexahydro-1H-indolizin-5-one] | < 1 µM | > 30 µM |
| O=C1C(O)C(O)C[C@@H]2C[C@H](c3c(O)ccc(Cl)c3Cl)CN12 (stereo partly drawn) [Compound 226, (2R,8aS)-2-(2,3-dichloro-6-hydroxyphenyl)-6,7-dihydroxy-hexahydro-1H-indolizin-5-one] | < 1 µM | > 30 µM |
| CNC(=O)C1CC(=O)N2C[C@@H](c3c(O)ccc(Cl)c3Cl)C[C@H]2C1 (stereo partly drawn) [Compound 232, (2R,8aS)-2-(2,3-dichloro-6-hydroxyphenyl)-N-methyl-5-oxo-hexahydro-1H-indolizine-7-carboxamide] | < 1 µM | > 30 µM |
| CN(C)CC1CC(=O)N2C[C@@H](c3c(O)ccc(Cl)c3Cl)C[C@H]2C1 (stereo partly drawn) [Compound 240, (2R,8aR)-2-(2,3-dichloro-6-hydroxyphenyl)-7-[(dimethylamino)methyl]-hexahydro-1H-indolizin-5-one] | < 1 µM | < 10 µM |
| O=C1CC(CN2CCNCC2)C[C@@H]2C[C@H](c3c(O)ccc(Cl)c3Cl)CN12 (stereo partly drawn) [Compound 241, (2R,8aR)-2-(2,3-dichloro-6-hydroxyphenyl)-7-(piperazin-1-ylmethyl)-hexahydro-1H-indolizin-5-one] | < 1 µM | > 30 µM |
| O=C1CC(O)C[C@@H]2C[C@H](c3c(O)ccc(Cl)c3Cl)CCN12 (stereo partly drawn) [Compound 250, (8R,9aS)-8-(2,3-dichloro-6-hydroxyphenyl)-2-hydroxy-octahydroquinolizin-4-one] | < 1 µM | > 30 µM |
| O=C1OC[C@@H]2C[C@H](c3c(O)ccc(Cl)c3Cl)CN12 [Compound 251, (6R,7aS)-6-(2,3-dichloro-6-hydroxyphenyl)-tetrahydro-1H-pyrrolo[1,2-c][1,3]oxazol-3-one] | < 1 µM | < 30 µM |
| CC1(C)OC(=O)N2C[C@@H](c3c(O)ccc(Cl)c3Cl)C[C@H]2C1O (stereo partly drawn) [Compound 257, (4aS,6R)-6-(2,3-dichloro-6-hydroxyphenyl)-4-hydroxy-3,3-dimethylhexahydro-1H-pyrrolo[1,2-c][1,3]oxazin-1-one] | < 1 µM | > 30 µM |
